Experimental data: US8969310B2, “Potentiation of anticancer agents” (Angiochem Inc., priority 2005, dated 2015)
Read-outs that look alike come from different tables or passages of the source.

How the values were obtained:
[1] = mouse, in vivo
Method: (§2) Briefly, the right common carotid of ketamine/xylazine (140/8 mg/kg i.p.) anesthetized mice was exposed and ligated at the level of the bifurcation of the common carotid, rostral to the occipital artery. The common carotid was then catheterized rostrally with polyethylene tubing filled with heparin (25 U/ml) and mounted on a 26-gauge needle. […] Prior to the perfusion, the contralateral blood flow contribution was eliminated by severing heart ventricles. […] Mice were then decapitated to terminate perfusion and the right hemisphere was isolated on ice before being subjected to capillary depletion.
(§3) After perfusion, the brain was further perfused for 60 sec with Ringer solution to wash the excess of radiolabeled molecules and then the right hemisphere was isolated on ice before being subjected to capillary depletion.

[2] = target: P-gp (human MDR1) (Homo sapiens, UniProt P08183); assay: Accumulation in MDCK-MDR1 cells with or without cyclosporin A (P-gp substrate test)
Method: In order to determine whether the conjugates of the present invention were P-gp substrates or not, MDCK cells were stably transfected with human MDR1 (MDCK-MDR1) and were subsequently incubated with unconjugated-anticancer drug or with the conjugates of the present invention. […] After the incubation, cells were washed and accumulation of radioactivity inside the cells or intracellular fluorescence was quantified. The increased in the accumulation of these drugs is expressed in term of x-fold compared to their respective control measured in the absence of CsA. Thus, the control value for each drug was set to 1-fold.

[3] = system: U-87 glioblastoma cells; assay: Cell proliferation assay ([3H]-thymidine incorporation), U-87; format: cell-based, human; details: for IC50: Homo sapiens
Method: (§1) For the in vitro cell proliferation assay, between 2.5 and 5×10^4 of U87 or A549 cells were seeded in a 24 well tissue culture microplate in a final volume of 1 ml of medium with 10% serum and incubated for 24 hours at 37° C. and 5% CO2. The medium was then replaced with serum-free medium and incubated overnight. The next morning the drug was freshly dissolved in dimethyl sulfoxide (DMSO) and the medium was replaced with complete medium containing the drug at different concentrations in triplicates. The final concentration of DMSO was 0.1%. The control used is a microplate well with cells and without drug. The cells were incubated for 48 to 72 hrs at 37° C. and 5% CO2. After the incubation, the medium was changed and replaced with 1 ml of complete medium containing [^3H]-thymidine (1 μCi/assay). The plate was incubated at 37° C. and 5% CO2 for 4 hrs. The medium was removed and the cells washed with PBS heated at 37° C. The cells were fixed with a mix of ethanol:acetic acid (3;1), then washed with water and precipitated 3 times with 10% of ice-cold TCA (trichloroacetic acid). Finally 500 μl of PCA (perchloric acid) were added to the wells and the microplates were heated for 30 min at 65° C. and 30 min at 75° C. The contents of each well was then transferred in a scintillation vial with 10 ml of scintillation cocktail and the activity was measured in CPM (count per minute) on a liquid scintillation counter Tri-Carb from Packard.
The anti-proliferatice activity of the conjugate against cancer cells in vitro was further assessed.

[4] = system: U-118 glioblastoma cells; assay: Cell proliferation assay ([3H]-thymidine incorporation), U-118; format: cell-based; details: read-out: IC50, effect on cell proliferation
[5] = system: NCI-H460 lung carcinoma cells; assay: Cell proliferation assay ([3H]-thymidine incorporation), NCI-H460; format: cell-based; details: for IC50: Homo sapiens
[6] = system: A549 lung carcinoma cells; assay: Cell proliferation assay ([3H]-thymidine incorporation), A549; format: cell-based; details: Homo sapiens, read-out: IC50, effect on cell proliferation
Method: as §1, with “Finally 500 μl of PCA (perchloric acid) were added to the wells and the microplates were heated for 30 min at 65° C. and 30 min at 75° C.” left out, “Packard. […]” for “Packard.”

[7] = system: Calu-3 lung carcinoma cells; assay: Cell proliferation assay, Calu-3; format: cell-based; details: Homo sapiens, read-out: IC50, effect on cell proliferation
[8] = system: RBE4 endothelial cells from rat brain; assay: Cell proliferation assay, RBE4; format: cell-based; details: read-out: IC50, effect on cell proliferation
[9] = system: BT-474 breast cancer cell line; assay: In vitro cytotoxicity, BT-474; format: cell-based
[10] = system: HCC1954 breast cancer cell line; assay: In vitro cytotoxicity, HCC1954; format: cell-based
[11] = system: MDA-MB-231 breast cancer cell line; assay: In vitro cytotoxicity, MDA-MB-231; format: cell-based
[12] = system: MDA-MB-468 breast cancer cell line; assay: In vitro cytotoxicity, MDA-MB-468; format: cell-based
[13] = system: SK-HEP-1 hepatocarcinoma cells; assay: In vitro cytotoxicity, SK-HEP-1; format: cell-based, human
[14] = Tissue distribution and pharmacokinetics after i.v. bolus (AUC0-4); format: in vivo, mice; details: equivalent to 5 mg/kg of Taxol
Method: The unconjugated anticancer drug and the conjugates were injected intra-veinously (i.v.) in mice as a bolus. Tissues were collected at different times (0.25, 0.5, 1 and 4 hrs) and homogenized. […] Radioactivity associated with the tissues was therefore quantified. The area under the curve (AUC0-4) was estimated using the Prism software and was plotted for the different tissues (FIG. 10).

[15] = system: NCI-H460 cell-cycle; assay: NCI-H460 cell cycle measured by FACS; format: cell-based; details: NCI-H460, 24 hrs; Taxol 100 nM, TxlAn2 conjugate 30 nM
[16] = system: NCI-H460 subcutaneous tumor; assay: Subcutaneous NCI-H460 tumor growth; format: in vivo, mice; details: i.v.
Method: Briefly, mice received a subcutaneous injection of 2.5×10^6 human U87 glioma cells or NCI-H460 cells. […] Treatments were then administered twice a week until animals were sacrificed. Mice were monitored every day for clinical symptoms and weight loss. Tumor volume was estimated with a kaliper and the following equation (tumor volume=π/2×(length (mm)×width^2 (mm)).
In the first subcutaneous tumor growth study, NCI-H460 cells were implanted in mice right flank (FIG. 22A).

[17] = comparator products; data based on rat GLP toxicity programs; cited from earlier work
[18] = Preliminary comparative toxicity in beagle dogs
[19] = target: T1, LRP (Mus musculus, UniProt Q91ZX7); assay: [125I]-RAP uptake in MEF-1 (LRP+) and PEA-13 (LRP-) fibroblasts; format: cell-based
T1 construct: endogenous in cells; host or cells: MEF-1 fibroblasts (LRP-positive), with PEA-13 fibroblasts (LRP-negative) as subtraction control
Method: The LRP-dependent accumulation of [^125I]-RAP was calculated by substracted the results for the uptake obtained with PEA-13 cells from the results obtained with MEF-1;

[20] = In situ mouse brain perfusion; details: 5 min perfusion, [125I]-labelled, FIG. 7
Method: as §2, §3

[21] = various aprotinin concentrations

Sequence of P-gp (human MDR1) (P08183 whole entry): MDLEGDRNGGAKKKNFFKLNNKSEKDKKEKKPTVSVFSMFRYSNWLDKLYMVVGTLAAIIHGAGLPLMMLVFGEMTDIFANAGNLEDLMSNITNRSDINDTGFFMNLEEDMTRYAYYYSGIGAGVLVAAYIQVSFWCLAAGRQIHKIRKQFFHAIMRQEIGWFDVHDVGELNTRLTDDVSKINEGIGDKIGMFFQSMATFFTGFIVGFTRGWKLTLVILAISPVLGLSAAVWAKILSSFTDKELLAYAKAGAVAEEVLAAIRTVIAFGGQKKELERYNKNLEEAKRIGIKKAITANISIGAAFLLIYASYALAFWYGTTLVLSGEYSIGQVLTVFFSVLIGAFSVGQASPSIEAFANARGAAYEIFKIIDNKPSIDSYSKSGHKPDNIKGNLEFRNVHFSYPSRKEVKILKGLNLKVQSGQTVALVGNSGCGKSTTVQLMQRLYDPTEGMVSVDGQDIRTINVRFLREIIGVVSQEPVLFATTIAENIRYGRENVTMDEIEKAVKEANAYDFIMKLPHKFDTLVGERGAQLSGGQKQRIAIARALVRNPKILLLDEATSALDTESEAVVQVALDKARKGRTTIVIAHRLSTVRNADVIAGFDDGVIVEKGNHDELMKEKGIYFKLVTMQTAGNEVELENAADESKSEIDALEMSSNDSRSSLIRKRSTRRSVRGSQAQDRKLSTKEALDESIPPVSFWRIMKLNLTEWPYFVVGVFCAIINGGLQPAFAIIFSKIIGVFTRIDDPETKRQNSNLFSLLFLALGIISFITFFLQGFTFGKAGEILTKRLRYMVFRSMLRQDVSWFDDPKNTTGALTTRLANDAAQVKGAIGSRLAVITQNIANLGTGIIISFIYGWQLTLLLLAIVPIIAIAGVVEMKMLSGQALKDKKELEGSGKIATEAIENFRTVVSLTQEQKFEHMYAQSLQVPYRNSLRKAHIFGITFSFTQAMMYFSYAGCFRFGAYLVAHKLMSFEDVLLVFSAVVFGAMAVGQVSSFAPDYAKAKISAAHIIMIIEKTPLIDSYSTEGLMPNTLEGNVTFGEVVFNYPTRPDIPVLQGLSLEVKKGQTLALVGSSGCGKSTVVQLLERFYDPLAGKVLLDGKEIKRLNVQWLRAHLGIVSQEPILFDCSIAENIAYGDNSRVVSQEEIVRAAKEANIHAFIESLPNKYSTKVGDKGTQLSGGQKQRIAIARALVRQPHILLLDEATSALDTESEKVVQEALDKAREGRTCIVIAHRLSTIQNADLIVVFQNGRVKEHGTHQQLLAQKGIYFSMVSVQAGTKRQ

C[C@@H](O)[C@H](N)C(=O)N[C@@H](Cc1ccccc1)C(=O)N[C@@H](Cc1ccccc1)C(=O)N[C@@H](Cc1ccc(O)cc1)C(=O)NCC(=O)NCC(=O)N[C@@H](CO)C(=O)N[C@@H](CCCNC(=N)N)C(=O)NCC(=O)N[C@@H](CCCCN)C(=O)N[C@@H](CCCNC(=N)N)C(=O)N[C@@H](CC(N)=O)C(=O)N[C@@H](CC(N)=O)C(=O)N[C@@H](Cc1ccccc1)C(=O)N[C@@H](CCCCN)C(=O)N[C@H](C(=O)N[C@@H](CCC(=O)O)C(=O)N[C@@H](CCC(=O)O)C(=O)N[C@@H](Cc1ccc(O)cc1)C(=O)O)[C@@H](C)O [Angiopep-2]
Accumulation into brain parenchyma compared with vascular marker [14C]-inulin [1]: higher than that of the vascular marker

rhodamine
Increase in accumulation in the presence of CsA, x-fold of control without CsA ([2]; MDCK-MDR1, 1 hr 37° C., 10 μM cyclosporin A): 7.5 fold | P-gp substrate or not ([2]; MDCK-MDR1, with or without CsA): are P-gp substrates

CC[C@]1(O)C[C@@H]2CN(CCc3c([nH]c4ccccc34)[C@@](C(=O)OC)(c3cc4c(cc3OC)N(C)[C@H]3[C@@](O)(C(=O)OC)[C@H](OC(C)=O)[C@]5(CC)C=CCN6CC[C@]43[C@@H]65)C2)C1 [vinblastine]
P-gp substrate or not ([2]; MDCK-MDR1): are P-gp substrates

CC(=O)O[C@H]1C(=O)[C@@]2(C)[C@H]([C@H](OC(=O)c3ccccc3)[C@]3(O)C[C@H](OC(=O)[C@H](O)[C@@H](NC(=O)c4ccccc4)c4ccccc4)C(C)=C1C3(C)C)[C@]1(OC(C)=O)CO[C@@H]1C[C@@H]2O [Taxol]
IC50 ([3]; 72 h, read-out: IC50, proliferation of glioblastoma cells (U-87)): ~10 nM | IC50 ([3]; read-out: IC50, effect on cell proliferation): 9.5 nM | IC50 ([3]; U-87 MG, Table 3B, read-out: IC50 (nM) Mean): 12.9 nM | Residual survival % Mean ([3]; U-87 MG): 40.35% | IC50 [4]: 7.2 nM | IC50 ([5]; NCI-H460, read-out: IC50, effect on cell proliferation): 9.3 nM | IC50 ([5]; NCI-H460, Table 3B, read-out: IC50 (nM) Mean): 6.61 nM | Residual survival % Mean ([5]; NCI-H460): 24.98% | IC50 [6]: 3.6 nM | IC50 [7]: 17.2 nM | IC50 [8]: 137 nM | Residual survival % Mean [9]: 52.24% | IC50 ([9]; Homo sapiens, Table 3B): 62.9 nM | Residual survival % Mean [10]: 48.82% | IC50 ([10]; Homo sapiens): 6.12 nM | Residual survival % Mean [11]: 45.62% | IC50 ([11]; Homo sapiens): 17.6 nM | Residual survival % Mean [12]: 54.26% | IC50 ([12]; Homo sapiens): 13.5 nM | Residual survival % Mean [13]: 55.18% | IC50 ([13]; Homo sapiens, SK-HEP1): 8.84 nM | P-gp substrate or not ([2]; MDCK-MDR1): are P-gp substrates | AUC 0-4 ([14]; Brain): 0.07 μg/g of tissue | AUC 0-4 ([14]; Eye): 0.57 μg/g of tissue | AUC 0-4 ([14]; Heart): 2.5 μg/g of tissue | AUC 0-4 ([14]; Kidney): 8.0 μg/g of tissue | AUC 0-4 ([14]; Liver): 22 μg/g of tissue | AUC 0-4 ([14]; Lung): 1.1 μg/g of tissue | Effect on cell cycle [15]: induce a blockade of NCI-H460 cell in G2/M phase | Tumor growth Δ ([16]; Day 0 to Day 11): 371 ± 58 mm^3 | T/C ([16]; Day 11): 62% | Tumor volume, Day 0 ([16]; baseline, equivalent of 10 mg/kg of Taxol): 112 ± 12 mm^3 | Tumor volume, Day 11 ([16]; equivalent of 10 mg/kg of Taxol, twice a week): 483 ± 63 mm^3 | MTD [17]: 8 mg/kg | Platelets ([18]; 4-days post-treatment): 200 ×109 cells/L | Reticulocytes ([18]; 4-days post-treatment): 0.011 ×1012 cells/L | White Blood Cells ([18]; 4-days post-treatment): 4.3 ×109 cells/L | Platelets ([18]; 8-days post treatment): 340 ×109 cells/L | Reticulocytes ([18]; 8-days post treatment): 0.11 ×1012 cells/L | White Blood Cells ([18]; 8-days post treatment): 8.7 ×109 cells/L | Platelets ([18]; Pre-treatment): 250 ×109 cells/L | Reticulocytes ([18]; Pre-treatment): 0.031 ×1012 cells/L | White Blood Cells ([18]; Pre-treatment): 9.7 ×109 cells/L

aprotinin
LRP-dependent accumulation of [125I]-RAP (MEF-1 minus PEA-13) ([19]; excess, 25 μM, FIG. 18): affect the LRP-dependent accumulation of [^125I]-RAP | Uptake of [125I]-RAP in LRP-negative cells (PEA-13) [19, 21]: almost unaffected | Uptake of [125I]-RAP in LRP-positive cells (MEF-1) [19, 21]: inhibited the transport of [^125I]-RAP in positive LRP cells in a dose-dependent manner | Initial brain uptake (transport rate) compared with transferrin [20]: highest initial transport rate than transferrin
